This is an account of results in US20130172345A1, “1-ACYL-4-(PHENOXY, BENZYLOXY, OR PHENYLAMINO)-1,2,3,4-TETRAHYDROQUINOLINE DERIVATIVES” (KOWA COMPANY, LTD., priority 2007, published 2013).

SMILES strings stand for the structures. Where a name gives a salt, the structure may show the parent alone.

Assay [1] has as its system HepG2 cells originating from human liver cancer. Kind of assay: EPO production in HepG2 cells (EPO ELISA of culture supernatant, 4% oxygen, 48 hrs). Particulars: test compound 3 μM, oxygen 4%, non-stimulated state = 100%, read-out: EPO production amount, % of control (3 μM). It is filed as cell-based. The method, then:
HepG2 cells originating from human liver cancer were seeded at a density of 1×10^4 cells per well on a 24-well plate by using minimum essential medium (MEM, manufactured by Sigma) comprising 10% bovine fetal serum. Next day, the medium was exchanged with Dulbecco's modified eagle medium (DMEM, manufactured by Sigma) comprising 10% bovine fetal serum lacking phenol red. Then, the test compound dissolved in DMSO was added thereto to obtain the final concentration of 3 μM or 10 μM while having 400 μl of the medium per well. The cells were incubated for 48 hrs in a CO2 incubator which had been adjusted to have oxygen concentration of 4%, followed by collecting the culture supernatant. The EPO concentration in the culture supernatant was immediately measured by using EPO ELISA kit (manufactured by Roche Diagnostics K.K.). Specific procedures were carried out according to the manufacturer's protocol included in the kit.
When EPO production amount in non-stimulated state, i.e., without addition of any compound, was 100%, the EPO production amount induced by each compound was calculated (% of control).
On the technique in general: ELISA stands for enzyme-linked immunosorbent assay.

The test system of assay [2] is K562 cells, human proerythroblast cells. The assay is described as follows: Hemoglobin production in K562 cells (fluorescence of the porphyrin ring). The assay is classed as cell-based. Particulars: 144 h, test compound 6 μM, 3+3 days, non-stimulated state = 100%, read-out: production amount of hemoglobin, % of control (6 μM). The method, then:
K562 cells (obtained from ATCC), which are human proerythroblast cells, were seeded at a density of 1×10^5 cells/1 mL on a 24-well plate by using complete medium (RPMI-1640 medium comprising 10% bovine fetal serum). After adding the test compound having 1000× concentration (1 μL), the cells were incubated for three days in a CO2 incubator (37° C., 5% CO2). After exchanging the medium, the cells were further incubated for three days. Then, the cells were collected and counted. After adjusting them to have 3×10^5 cells, the amount of hemoglobin produced in the cells was determined by measuring fluorescence of the porphyrin ring. Specifically, the cells which had been collected by centrifugation were suspended in 2 M oxalic acid solution (500 μL) and boiled for 30 minutes under heating. After cooling the cells, the fluorescence intensity was measured by Fluorescence micro plate reader (Spectra MAX GeminiEM, manufactured by Molecular Devices Corporation) ([…]). When hemoglobin amount in non-stimulated state, i.e., without addition of any compound, was 100%, the production amount of hemoglobin induced by each compound was calculated (% of control).

As for `CC(=O)N1c2ccc(F)cc2[C@H](Oc2ccc(F)cc2)C[C@@H]1C` (relative stereo) [Compound 34, cis-1-acetyl-4-(4-fluorophenoxy)-6-fluoro-2-methyl-1,2,3,4-tetrahydroquinoline], in assay [1], the activity at 3 µM came out at 288%. Moreover, the activity at 6 µM in assay [2] was determined as 257%.

`CC(=O)N1c2ccccc2[C@H](OCc2ccccc2)C[C@@H]1C` (relative stereo) [Compound 36, cis-1-acetyl-2-methyl-4-benzyloxy-1,2,3,4-tetrahydroquinoline]: the activity at 3 µM in assay [1] worked out at 114%. The activity at 6 µM in assay [2] was 83%.

Take `CCOC(=O)c1ccc2c(c1)[C@H](Nc1ccc(Cl)cc1)C[C@H](C)N2C(C)=O` (relative stereo) [Compound 41, ethyl cis-1-acetyl-4-[(4-chlorophenyl)amino]-2-methyl-1,2,3,4-tetrahydroquinoline-6-carboxylate]: the activity at 3 µM in assay [1] came to 119%. Moreover, the activity at 6 µM in assay [2] came out at 529%.

In the case of `CC(=O)N1c2ccc(C(N)=O)cc2[C@H](Oc2ccc(F)cc2)C[C@@H]1C` (relative stereo) [Compound 54, cis-1-acetyl-4-(4-fluorophenoxy)-2-methyl-1,2,3,4-tetrahydroquinoline-6-carboxamide], the activity at 3 µM in assay [1] was 148%. Moreover, in assay [2], the activity at 6 µM was determined as 186%.

For the molecule `CC(=O)N1c2cc(F)ccc2[C@H](Oc2ccc(F)cc2)C[C@@H]1C` (relative stereo) [Compound 56, cis-1-acetyl-7-fluoro-4-(4-fluorophenoxy)-2-methyl-1,2,3,4-tetrahydroquinoline], the activity at 3 µM in assay [1] was 213%. Also, the activity at 6 µM in assay [2] is 119%.

With `CC(=O)N1c2ccccc2[C@H](Oc2ccc(O)cc2)C[C@@H]1C` (relative stereo) [Compound 57, cis-1-acetyl-4-(4-hydroxyphenoxy)-2-methyl-1,2,3,4-tetrahydroquinoline], in assay [1], the activity at 3 µM turned out to be 251%. Moreover, the activity at 6 µM in assay [2] was 221%.

Consider `CC(=O)N1c2ccccc2[C@H](Oc2cc(F)cc(F)c2)C[C@@H]1C` (relative stereo) [Compound 62, cis-1-acetyl-4-(3,5-difluorophenoxy)-2-methyl-1,2,3,4-tetrahydroquinoline], for which, in assay [1], the activity at 3 µM is 193%. In addition, the activity at 6 µM in assay [2] is 168%.

As to `CC(=O)N1CCN(c2ccc(N[C@@H]3C[C@H](C)N(C(C)=O)c4ccccc43)cc2)CC1` (relative stereo) [Compound 77, cis-1-acetyl-4-{[4-(4-acetylpiperazinyl)phenyl]amino}-2-methyl-1,2,3,4-tetrahydroquinoline], in assay [1], the activity at 3 µM was 221%. Besides, the activity at 6 µM in assay [2] turned out to be 120%.

`CC(=O)N1c2ccccc2[C@H](Nc2ccc(N3CCN(S(C)(=O)=O)CC3)cc2)C[C@@H]1C` (relative stereo) [Compound 78, cis-1-acetyl-4-{[4-(4-methanesulfonylpiperazinyl)phenyl]amino}-2-methyl-1,2,3,4-tetrahydroquinoline]: the activity at 3 µM in assay [1] stood at 217%. Besides, the activity at 6 µM in assay [2] worked out at 210%.

`CC(=O)N1CCN(c2ccc3c(c2)[C@H](Nc2ccc(Cl)cc2)C[C@H](C)N3C(C)=O)CC1` (relative stereo) [Compound 79, cis-1-acetyl-6-[(4-acetyl)piperazino]-4-[(4-chlorophenyl)amino]-2-methyl-1,2,3,4-tetrahydroquinoline]: in assay [1], the activity at 3 µM was found to be 476%. In addition, in assay [2], the activity at 6 µM worked out at 186%.

`CC(=O)N1c2ccc(C(N)=O)cc2[C@H](Nc2ccc(CC(=O)O)cc2)C[C@@H]1C` (relative stereo) [Compound 105, cis-1-acetyl-4-[(4-carboxymethylphenyl)amino]-2-methyl-1,2,3,4-tetrahydroquinoline-6-carboxamide]: in assay [1], the activity at 3 µM is 245%. Besides, the activity at 6 µM in assay [2] came to 358%.

For the molecule `CC(=O)N1c2ccc(CO)cc2[C@H](Nc2ccc(Cl)cc2)C[C@@H]1C` (relative stereo) [Compound 121, cis-1-acetyl-4-[(4-chlorophenyl)amino]-6-hydroxymethyl-2-methyl-1,2,3,4-tetrahydroquinoline], the activity at 3 µM in assay [1] was found to be 222%. The activity at 6 µM in assay [2] is 149%.

In the case of `CC(=O)N1c2ccccc2C(Nc2ccccc2)CC1C` (centres unmarked) [Compound 1, 1-acetyl-2-methyl-4-phenylamino-1,2,3,4-tetrahydroquinoline], the activity at 3 µM in assay [1] was 235%. Besides, the activity at 6 µM in assay [2] worked out at 575%.

As to `CCC(=O)N1c2ccccc2C(Nc2ccccc2)CC1C` (centres unmarked) [Compound 3, 2-methyl-4-phenylamino-1-propionyl-1,2,3,4-tetrahydroquinoline], the activity at 3 µM in assay [1] stood at 187%. Also, the activity at 6 µM in assay [2] was determined as 912%.

As to `CC(=O)N1c2ccc(F)cc2C(Nc2ccc(F)cc2)CC1C` (centres unmarked) [Compound 5, 1-acetyl-6-fluoro-4-[(4-fluorophenyl)amino]-2-methyl-1,2,3,4-tetrahydroquinoline], in assay [1], the activity at 3 µM is 205%. The activity at 6 µM in assay [2] came to 245%.

For `CC(=O)N1c2ccccc2C(Nc2ccc(Cl)cc2)CC1C` (centres unmarked) [Compound 8, 1-acetyl-4-[(4-chlorophenyl)amino]-2-methyl-1,2,3,4-tetrahydroquinoline], in assay [1], the activity at 3 µM worked out at 248%. The activity at 6 µM in assay [2] is 412%.

In the case of `CC(=O)N1c2ccccc2C(Nc2ccc(C#N)cc2)CC1C` (centres unmarked) [Compound 9, 1-acetyl-4-[(4-cyanophenyl)amino]-2-methyl-1,2,3,4-tetrahydroquinoline], the activity at 3 µM in assay [1] worked out at 405%. The activity at 6 µM in assay [2] came to 406%.

`COc1ccc(NC2CC(C)N(C(C)=O)c3ccccc32)cc1` (centres unmarked) [Compound 10, 1-acetyl-4-[(4-methoxyphenyl)amino]-2-methyl-1,2,3,4-tetrahydroquinoline]: the activity at 3 µM in assay [1] came to 172%. In addition, in assay [2], the activity at 6 µM came out at 409%.

With `COc1cccc(NC2CC(C)N(C(C)=O)c3ccccc32)c1` (centres unmarked) [Compound 11, 1-acetyl-4-[(3-methoxyphenyl)amino]-2-methyl-1,2,3,4-tetrahydroquinoline], the activity at 3 µM in assay [1] came to 163%. Further, the activity at 6 µM in assay [2] came to 361%.

With `COc1ccccc1NC1CC(C)N(C(C)=O)c2ccccc21` (centres unmarked) [Compound 12, 1-acetyl-4-[(2-methoxyphenyl)amino]-2-methyl-1,2,3,4-tetrahydroquinoline], the activity at 3 µM in assay [1] was determined as 197%. Further, in assay [2], the activity at 6 µM is 398%.

`CC(=O)N1c2ccc(Br)cc2C(Nc2ccccc2)CC1C` (centres unmarked) [Compound 13, 1-acetyl-6-bromo-2-methyl-4-phenylamino-1,2,3,4-tetrahydroquinoline]: in assay [1], the activity at 3 µM was found to be 229%. Further, in assay [2], the activity at 6 µM came out at 365%.

In the case of `CC(=O)N1c2ccc(C#N)cc2C(Nc2ccccc2)CC1C` (centres unmarked) [Compound 14, 1-acetyl-6-cyano-2-methyl-4-phenylamino-1,2,3,4-tetrahydroquinoline], in assay [1], the activity at 3 µM stood at 257%. Further, the activity at 6 µM in assay [2] amounted to 440%.

With `CC(=O)N1c2ccccc2C(Nc2ccc(F)cc2)CC1C` (centres unmarked) [Compound 15, 1-acetyl-4-[(4-fluorophenyl)amino]-2-methyl-1,2,3,4-tetrahydroquinoline], the activity at 3 µM in assay [1] turned out to be 348%. In addition, the activity at 6 µM in assay [2] came out at 409%.

For `CC(=O)N1c2ccccc2C(Nc2cccc(F)c2)CC1C` (centres unmarked) [Compound 16, 1-acetyl-4-[(3-fluorophenyl)amino]-2-methyl-1,2,3,4-tetrahydroquinoline], the activity at 3 µM in assay [1] is 288%. The activity at 6 µM in assay [2] is 416%.

Consider `CC(=O)N1c2ccccc2C(Nc2ccc(Oc3ccccc3)cc2)CC1C` (centres unmarked) [Compound 17, 1-acetyl-4-[(4-phenoxyphenyl)amino]-2-methyl-1,2,3,4-tetrahydroquinoline], for which the activity at 3 µM in assay [1] is 172%. For the same molecule, the activity at 6 µM in assay [2] was determined as 517%.

For the molecule `CC(=O)N1c2ccccc2C(Nc2ccc(OC(C)C)cc2)CC1C` (stereo not drawn) [Compound 18, cis-1-acetyl-4-[(4-isopropoxyphenyl)amino]-2-methyl-1,2,3,4-tetrahydroquinoline.hydrochloride], the activity at 3 µM in assay [1] amounted to 178%. In addition, the activity at 6 µM in assay [2] was 374%.

As for `CC(=O)N1c2ccccc2C(Nc2ccc(N3CCOCC3)cc2)CC1C` (stereo not drawn) [Compound 19, cis-1-acetyl-2-methyl-4-[(4-morpholinophenyl)amino]-1,2,3,4-tetrahydroquinoline.hydrochloride], the activity at 3 µM in assay [1] was 191%. The activity at 6 µM in assay [2] stood at 284%.

On to `CC(=O)N1c2ccccc2C(Nc2ccc(N(C)C)cc2)CC1C` (centres unmarked) [Compound 20, 1-acetyl-4-[(4-N,N-dimethylaminophenyl)amino]-2-methyl-1,2,3,4-tetrahydroquinoline.2 hydrochloride], for which, in assay [1], the activity at 3 µM came out at 174%. Moreover, the activity at 6 µM in assay [2] was 117%.
